Key:
Test in all cases: radiometric protein kinase assay (33PanQinase Activity Assay)
Format in all cases: biochemical
Details in all cases: singlicate, read-out: residual activity
[1] = target: T1, ABL2 (Homo sapiens, UniProt P42684)
T1 construct: GST or His (not specified per kinase); purchased ProQinase (panel service); host or cells: Sf9 insect cells or E. coli
Experimental: (§1) In a first experiment, the kinase inhibition profile of the compound of formula (1) was evaluated at Proqinase (http://www.proqinase.com) by measuring residual activity values at a concentration of 10 µM of the test compound in singlicate in front of the following kinases: ABL2, EPHA3, CSF1-R, DDR2 wt, DDR2 N456 S, EGF-R d746-750, EGF-R d747-752/P753S, EGF-R G719C, EGF-R G719S, EGF-R L858R, EGF-R L861Q, EGF-R wt, EPHA1, EPHA2, EPHB1, ERBB4, LCK, MINK1, RAF1 Y340D/Y341D (untagged), RIPK2, STK17A. In a second experiment, the kinase inhibition profile of the compound of formula (1) was evaluated at Proqinase (http://www.proqinase.com) by measuring residual activity values at a concentration of 0.5 and 10 µM of the test compound in singlicate in front of a panel of 300 kinases using the following protocol:
(§2) The compounds were dissolved to 1 x 10^-03 M stock solutions in 100% DMSO. Subsequently, 100 µl of each stock solution were transferred into wells A3-F12 of a microtiter plate ("master plate"). Wells A1-F2 were filled with 100 µl 100% DMSO as controls. 5 x 10 µl of the master plate were aliquoted into 5 copy plates, which were stored at -20° Celsius until use. For the testing of each group of up to 8 kinases, one copy plate was used.
(§3) In the process, 90 µl H2O were added to each well of a copy plate. To minimize precipitation, the H2O was added to each well only a few minutes before the transfer of the compound solutions into the assay plates. The plate was shaken thoroughly, resulting in a "compound dilution plate" with a compound concentration of 1 x 10^-04 M/10 % DMSO. This plate was used for the transfer of 5 µl compound solution into the assay plates. The final volume of the assay was 50 µl. All compounds were tested at 1 x 10^-05 M in singlicate. The final DMSO concentration in the reaction cocktails was 1 % in all cases. The compound dilution plates were disposed at the end of each working day.
(§4) A radiometric protein kinase assay (^33PanQinase® Activity Assay) was used for measuring the kinase activity of the corresponding protein kinases. All kinase assays were performed in 96-well FlashPlatesTM from Perkin Elmer (Boston, MA, USA) in a 50 µl reaction volume. The reaction cocktail was pipetted in 4 steps in the following order: • 10 µl of non-radioactive ATP solution (in H2O) • 25 µl of assay buffer/ [γ-33P]-ATP mixture • 5 µl of test sample in 10% DMSO • 10 µl of enzyme/substrate mixture
(§5) The protein kinase reaction cocktails were incubated at 30°C for 60 minutes. The reaction was stopped with 50 µl of 2 % (v/v) H3PO4, plates were aspirated and washed two times with 200 µl 0.9 % (w/v) NaCl. All assays were performed with a BeckmanCoulter Biomek 2000/SL robotic system. Incorporation of ^33Pi (counting of "cpm") was determined with a microplate scintillation counter (Microbeta, Wallac).
(§6) All protein kinase assays were performed with a BeckmanCoulter Core robotic system.
(§7) All protein kinases provided by ProQinase were expressed in Sf9 insect cells or in E.coli as recombinant GST-fusion proteins or His-tagged proteins. All kinases were produced from human cDNAs and purified by either GSH-affinity chromatography or immobilized metal. Affinity tags were removed from a number of kinases during purification. The purity of the protein kinases was examined by SDS-PAGE/Coomassie staining, the identity was checked by mass spectroscopy.
(§8) Kinases from external vendors (CAR = Carna Biosciences Inc.; INV = Life Technologies (Invitrogen Corporation); MIL = Merck-Millipore (Millipore Corporation)) were expressed, purified and quality-controlled by virtue of the vendors readings.
(§9) For each kinase, the median value of the cpm of six wells of column 1 of each assay plate was defined as "low control" (n=6). This value reflects unspecific binding of radioactivity to the plate in the absence of a protein kinase but in the presence of the substrate. […]

[2] = target: T2, EGF-R G719C (Homo sapiens, UniProt P00533, G719C)
T2 construct: GST or His (not specified per kinase); purchased ProQinase (panel service); host or cells: Sf9 insect cells or E. coli
T2 sequence (P00533 25-1210 G719C): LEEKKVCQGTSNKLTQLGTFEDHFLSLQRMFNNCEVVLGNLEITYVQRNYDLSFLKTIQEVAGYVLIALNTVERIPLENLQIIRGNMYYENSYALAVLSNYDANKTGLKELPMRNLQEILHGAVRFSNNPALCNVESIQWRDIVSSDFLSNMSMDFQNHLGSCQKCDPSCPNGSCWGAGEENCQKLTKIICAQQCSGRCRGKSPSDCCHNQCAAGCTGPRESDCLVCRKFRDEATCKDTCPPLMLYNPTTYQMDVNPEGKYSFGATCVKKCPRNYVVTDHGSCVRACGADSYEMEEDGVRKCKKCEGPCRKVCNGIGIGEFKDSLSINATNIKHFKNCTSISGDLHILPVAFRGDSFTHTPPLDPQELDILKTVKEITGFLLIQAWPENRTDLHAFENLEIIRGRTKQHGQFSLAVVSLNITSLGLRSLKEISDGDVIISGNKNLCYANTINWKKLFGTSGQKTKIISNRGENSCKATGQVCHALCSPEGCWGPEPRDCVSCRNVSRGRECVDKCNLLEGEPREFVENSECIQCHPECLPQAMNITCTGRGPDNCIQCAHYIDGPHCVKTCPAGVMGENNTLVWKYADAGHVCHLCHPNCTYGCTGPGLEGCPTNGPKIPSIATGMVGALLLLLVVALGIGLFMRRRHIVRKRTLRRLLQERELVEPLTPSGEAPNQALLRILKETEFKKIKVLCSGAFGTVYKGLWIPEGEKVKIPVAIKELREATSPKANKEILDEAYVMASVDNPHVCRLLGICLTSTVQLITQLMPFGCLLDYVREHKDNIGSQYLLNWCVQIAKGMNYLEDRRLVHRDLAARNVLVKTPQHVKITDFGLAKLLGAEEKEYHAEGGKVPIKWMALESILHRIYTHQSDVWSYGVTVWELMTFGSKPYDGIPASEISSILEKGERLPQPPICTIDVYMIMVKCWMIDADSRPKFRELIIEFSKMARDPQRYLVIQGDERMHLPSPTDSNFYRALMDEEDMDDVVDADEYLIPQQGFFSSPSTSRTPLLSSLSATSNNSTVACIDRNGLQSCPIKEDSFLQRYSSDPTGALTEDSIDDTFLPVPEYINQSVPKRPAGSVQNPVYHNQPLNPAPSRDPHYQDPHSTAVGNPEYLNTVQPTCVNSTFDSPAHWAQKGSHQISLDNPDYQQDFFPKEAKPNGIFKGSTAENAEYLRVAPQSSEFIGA
Experimental: as §1, §2, §3, §4, §5, §6, §7, §8, §9

[3] = target: T3, RAF1 Y340D/Y341D (untagged) (Homo sapiens, UniProt P04049, Y340D/Y341D)
T3 construct: purchased ProQinase (panel service); host or cells: Sf9 insect cells or E. coli
T3 sequence (P04049 whole entry Y340D/Y341D): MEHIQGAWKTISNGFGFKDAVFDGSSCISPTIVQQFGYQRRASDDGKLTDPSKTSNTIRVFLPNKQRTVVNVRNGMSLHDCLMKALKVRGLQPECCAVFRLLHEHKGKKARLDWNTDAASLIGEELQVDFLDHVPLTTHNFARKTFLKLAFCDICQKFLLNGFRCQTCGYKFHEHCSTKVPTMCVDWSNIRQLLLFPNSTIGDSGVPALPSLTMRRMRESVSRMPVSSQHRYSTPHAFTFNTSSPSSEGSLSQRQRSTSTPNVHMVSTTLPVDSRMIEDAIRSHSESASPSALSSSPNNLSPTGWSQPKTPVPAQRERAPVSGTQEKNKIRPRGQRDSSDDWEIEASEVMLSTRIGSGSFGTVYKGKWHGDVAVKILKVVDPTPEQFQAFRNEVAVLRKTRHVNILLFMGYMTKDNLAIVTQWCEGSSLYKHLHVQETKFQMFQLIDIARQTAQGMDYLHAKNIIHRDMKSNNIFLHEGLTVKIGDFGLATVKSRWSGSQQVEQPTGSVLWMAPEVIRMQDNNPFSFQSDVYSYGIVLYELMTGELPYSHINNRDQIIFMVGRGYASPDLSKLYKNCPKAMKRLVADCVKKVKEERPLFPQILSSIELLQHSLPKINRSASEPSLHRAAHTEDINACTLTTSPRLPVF
Experimental: as §1, §2, §3, §4, §5, §6, §7, §8, §9

T1 sequence (P42684 whole entry): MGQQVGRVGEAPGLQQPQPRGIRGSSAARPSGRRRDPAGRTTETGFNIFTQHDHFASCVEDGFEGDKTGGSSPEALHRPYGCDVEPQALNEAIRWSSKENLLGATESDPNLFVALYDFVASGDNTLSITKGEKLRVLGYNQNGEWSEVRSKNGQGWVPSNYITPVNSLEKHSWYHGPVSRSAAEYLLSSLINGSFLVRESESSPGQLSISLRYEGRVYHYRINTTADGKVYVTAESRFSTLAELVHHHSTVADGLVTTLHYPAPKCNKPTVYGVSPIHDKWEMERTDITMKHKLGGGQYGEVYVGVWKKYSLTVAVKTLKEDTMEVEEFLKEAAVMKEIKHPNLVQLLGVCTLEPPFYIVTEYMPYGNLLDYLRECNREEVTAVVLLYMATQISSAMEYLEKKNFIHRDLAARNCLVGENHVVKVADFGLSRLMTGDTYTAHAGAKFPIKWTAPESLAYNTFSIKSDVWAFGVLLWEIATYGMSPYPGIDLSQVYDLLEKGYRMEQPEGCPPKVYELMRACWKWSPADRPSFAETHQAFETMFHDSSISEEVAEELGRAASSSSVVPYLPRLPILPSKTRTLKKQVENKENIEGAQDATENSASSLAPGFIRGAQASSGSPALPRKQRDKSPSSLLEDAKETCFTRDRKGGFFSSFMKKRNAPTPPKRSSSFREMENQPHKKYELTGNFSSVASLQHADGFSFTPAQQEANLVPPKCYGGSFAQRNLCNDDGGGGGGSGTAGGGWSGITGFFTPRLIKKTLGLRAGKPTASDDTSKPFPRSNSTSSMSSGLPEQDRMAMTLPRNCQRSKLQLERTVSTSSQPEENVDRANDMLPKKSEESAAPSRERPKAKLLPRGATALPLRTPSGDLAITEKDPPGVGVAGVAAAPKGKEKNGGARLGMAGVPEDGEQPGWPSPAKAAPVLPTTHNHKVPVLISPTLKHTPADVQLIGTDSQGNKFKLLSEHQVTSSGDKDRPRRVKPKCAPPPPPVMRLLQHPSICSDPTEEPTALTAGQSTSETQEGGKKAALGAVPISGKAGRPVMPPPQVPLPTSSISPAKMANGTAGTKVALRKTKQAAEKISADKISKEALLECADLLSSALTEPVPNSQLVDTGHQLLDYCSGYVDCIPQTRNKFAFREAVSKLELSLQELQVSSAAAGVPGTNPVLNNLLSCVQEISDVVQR

remaining activity at 0.5 µM ([1]; 0.5 µM test compound): 44% | remaining activity at 10 µM ([1]; 10 µM test compound): 13% | remaining activity at 0.5 µM ([2]; 0.5 µM test compound): 29% | remaining activity at 10 µM ([2]; 10 µM test compound): 6% | remaining activity at 0.5 µM ([3]; 0.5 µM test compound): 57% | remaining activity at 10 µM ([3]; 10 µM test compound): 25%
SMILES: Cn1c(=O)c(-c2c(Cl)cccc2Cl)cc2c(N)nc(Nc3ccccc3)nc21 [Compound (1), 4-amino-6-(2,6-dichlorophenyl)-8-methyl-2-(phenylamino)-pyrido[2,3-d]pyrimidin-7(8H)-one]
